Laboratory results taken from PMC5668434, “Modulation of telomere protection by the PI3K/AKT pathway” (Nature Communications, 2017).

Assays:
[1] = tested on: TRF1 foci in CHA-9.3 mouse lung tumor cell line; test: TRF1 foci immunofluorescence in CHA-9.3 cells; format: cell-based; conditions: Mus musculus; 10 μM; 24 h; CHA-9.3; relative to DMSO; read-out: Inhibition of TRF1 foci fluorescence
Experimental: TRF1 immunofluorescence of TRF1 was performed in lung tumor-derived cell line (CHA9.3) and in MEFs[39]. A rat monoclonal antibody against mouse TRF1 developed by the Monoclonal antibody unit at CNIO was used to detect endogenous TRF1 (1:500). GFP-TRF1 fluorescence was directly measured in cells fixed in paraformaldehyde. For quantification of TRF1 foci intensity, pictures of fixed cells were automatically acquired from each well by the Opera HCS system (Perkin Elmer). Sixty images of random fields per well, with a 40× magnification lens, were taken under non-saturating conditions. At least 1 × 10^3 cells were analyzed for each well. Briefly, images were segmented using the DAPI staining to generate masks matching cell nuclei from which-TRF1 foci were analyzed.

[2] = tested on: mTOR; conditions: reported in literature; cited from earlier work
[3] = tested on: pAKT (S473) in ER/Her2-positive breast cancer PDXs; test: pAKT (S473) immunohistochemistry in breast cancer PDXs; format: in vivo, mouse; conditions: 12 days
Experimental: To this end, we generated PDXs from seven independent ER/Her2-positive breast cancer patients in female athymic NMRI nu/nu mice, and treated these with either the PI3Kα specific inhibitor BYL719 (35 mg/k 6IW) or with vehicle during a total of 12 days. Mice were then killed and PDXs extracted and formalin fixed for further analysis. A TRF1 immunofluorescence followed by a telomere quantitative q-FISH was performed in PDXs sections to identify TRF1 specifically located at telomeres by co-localization of TRF1 protein to telomeric DNA, as well as to quantify telomere length. Telomeric TRF1 foci at telomeres (green spots) were unequivocally identified by co-localization with telomeric PNA probe (red spots) (Fig. 8a). […] Immunohistochemistry staining of phosphorylated AKT (S473) in these same PDXs followed by quantification of tumor positive area was performed to address the efficacy of BYL719 treatment (Fig. 8c, d). […] These four PDXs were considered as “responders” to the PI3Kαi treatment. […] This unexpected increase in pAKT levels of PDX191 upon BYL719 treatment could be explained by the activation of regulatory feedback loops that trigger compensatory signaling events leading to activation of the AKT pathway. These three PDX (PDX131, PDX39, PDX191) were considered as “non-responders” to the treatment with the PI3Kα inhibitor BYL719. […] It should be pointed out that untreated PDX131 and PDX39 that presented undetectable pAKT levels correspond to those samples with the lowest telomeric TRF1 levels (Fig. 8b, d). […] In addition, the telomere length changes were more moderate as compared to changes observed in TRF1 levels.
Experiments were conducted following the European Union’s animal care directive (86/609/EEC) and were approved by the Ethical Committee of Animal Experimentation of the Vall d’Hebron Research Institute and patient consent. Fresh primary or metastatic human breast tumors were obtained from patients at time of surgery or biopsy. […]

[4] = tested on: PI3Kγ; conditions: reported in literature; cited from earlier work
[5] = tested on: ER/Her2-positive breast cancer PDXs; test: Mean telomere length by Q-FISH in PDXs; format: in vivo, mouse; conditions: seven PDXs; 12 days
Experimental: (§1) To this end, we generated PDXs from seven independent ER/Her2-positive breast cancer patients in female athymic NMRI nu/nu mice, and treated these with either the PI3Kα specific inhibitor BYL719 (35 mg/k 6IW) or with vehicle during a total of 12 days. Mice were then killed and PDXs extracted and formalin fixed for further analysis. A TRF1 immunofluorescence followed by a telomere quantitative q-FISH was performed in PDXs sections to identify TRF1 specifically located at telomeres by co-localization of TRF1 protein to telomeric DNA, as well as to quantify telomere length. […] Immunohistochemistry staining of phosphorylated AKT (S473) in these same PDXs followed by quantification of tumor positive area was performed to address the efficacy of BYL719 treatment (Fig. 8c, d). […]
(§2) An immune-Fish was performed in formalin-fixed paraffin-embedded PDXs sections to identify telomeric TRF1 and quantify telomere length. TRF1 foci were detected by immunofluorescence as described above. Quantitative FISH was performed as follows: samples were permeabilized for 2 h in PBS-5% Triton, blocked for 1 h with 5% BSA in PBS, and immunofluorescence with TRF1 homemade rat TRF1 antibody diluted 1:500 was performed. […] Maximal projection of Z-stack images generated using advanced fluorescence software (LAS) was analyzed with the Definiens XD software package. […]

[6] = tested on: ER/Her2-positive breast cancer PDXs; test: γH2AX and telomere-induced foci (TIFs) in PDXs; format: in vivo, mouse; conditions: 12 days
Experimental: We also observed a higher number of telomere-induced DNA damage foci (TIFs) in the BYL719-treated “responder” tumors than in the “non-responders” (Fig. 8h, i), in agreement with lower levels of telomere bound TRF1 levels in the “responders” (Fig. 8b, d).
Formalin-fixed paraffin-embedded PDXs sections were permeabilized with 0.5% PBS-Triton for 1 h and blocked first with fetal bovine serum for 2 h and then in 5% BSA for 2 h. Samples were incubated O/N at 4 °C with the primary antibody. Antibodies used were anti-TRF1 (1:200) (TRF-78, ABCAM, ab10579), anti-RAP1 (1:300) (Bethyl Laboratories, A300-306A), and anti-phospho-histone2 H2AX-Ser139 (γH2AX) (1:300) (Millipore, 05-636). Slides were further incubated with 488-Alexa or 555-Alexa labeled secondary antibodies. Nuclei were counterstained in a 4 µg/ml 4′,6-[…]-2-phenylindole (DAPI)/PBS solution before mounting with Vectashield.

[7] = target: T1, mTOR (FRAP1) (Homo sapiens, UniProt P42345); test: mTOR biochemical assay (LanthaScreen); conditions: as given in the text
T1 construct: purchased ThermoFisher PV4753

[8] = tested on: PI3Kβ; conditions: reported in literature; cited from earlier work
[9] = tested on: PI3Kδ; conditions: reported in literature; cited from earlier work
[10] = tested on: PI3Kα; conditions: reported in literature; cited from earlier work
[11] = tested on: telomeric TRF1 in ER/Her2-positive breast cancer PDXs; test: Telomeric TRF1 foci (immuno-FISH) in breast cancer PDXs; format: in vivo, mouse; conditions: BYL719 35 mg/kg QD 6 days/week, 12 days
Experimental: as §1, §2

T1 sequence (P42345 1360-2549 limits assumed): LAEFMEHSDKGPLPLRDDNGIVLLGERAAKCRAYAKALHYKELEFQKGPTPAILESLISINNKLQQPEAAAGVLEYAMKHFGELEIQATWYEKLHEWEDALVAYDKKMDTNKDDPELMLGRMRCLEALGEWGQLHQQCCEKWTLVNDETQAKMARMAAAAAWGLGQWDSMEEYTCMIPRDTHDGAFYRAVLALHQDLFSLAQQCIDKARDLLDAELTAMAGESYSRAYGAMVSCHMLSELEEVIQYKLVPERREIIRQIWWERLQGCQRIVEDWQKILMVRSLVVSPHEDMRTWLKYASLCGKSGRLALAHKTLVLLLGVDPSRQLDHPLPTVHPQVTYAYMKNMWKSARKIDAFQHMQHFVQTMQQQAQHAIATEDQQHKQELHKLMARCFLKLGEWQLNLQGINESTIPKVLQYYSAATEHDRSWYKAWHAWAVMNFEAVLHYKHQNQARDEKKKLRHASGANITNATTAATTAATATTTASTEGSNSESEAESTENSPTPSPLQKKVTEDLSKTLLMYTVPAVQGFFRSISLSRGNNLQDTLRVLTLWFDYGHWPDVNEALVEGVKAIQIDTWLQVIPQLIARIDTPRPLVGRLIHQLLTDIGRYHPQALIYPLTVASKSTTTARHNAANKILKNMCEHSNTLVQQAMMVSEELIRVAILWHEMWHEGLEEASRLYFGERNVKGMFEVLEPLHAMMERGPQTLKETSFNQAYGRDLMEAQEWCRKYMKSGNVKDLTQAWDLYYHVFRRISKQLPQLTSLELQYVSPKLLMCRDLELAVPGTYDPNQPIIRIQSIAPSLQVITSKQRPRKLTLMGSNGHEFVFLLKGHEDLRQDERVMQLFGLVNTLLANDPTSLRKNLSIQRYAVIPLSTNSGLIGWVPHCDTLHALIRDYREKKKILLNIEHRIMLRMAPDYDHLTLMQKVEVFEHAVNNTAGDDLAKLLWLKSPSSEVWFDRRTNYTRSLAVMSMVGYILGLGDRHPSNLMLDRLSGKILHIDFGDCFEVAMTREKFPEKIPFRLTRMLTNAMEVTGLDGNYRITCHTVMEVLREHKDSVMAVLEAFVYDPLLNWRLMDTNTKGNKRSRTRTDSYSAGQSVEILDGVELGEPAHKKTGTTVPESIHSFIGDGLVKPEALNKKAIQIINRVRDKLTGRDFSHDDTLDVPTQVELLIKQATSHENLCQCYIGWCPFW

In the case of `Cc1nc(NC(=O)N2CCC[C@H]2C(N)=O)sc1-c1ccnc(C(C)(C)C(F)(F)F)c1` [BYL-719], the inhibition at 10 µM [1] is given as 30%, the IC50 [2] is given as greater than 9100 nM and the “pAKT levels upon treatment (in words)” value ([3]; PDX39 (negative for pAKT at basal levels)) is given as “remained unchanged”. The “pAKT levels upon treatment (in words)” value ([3]; PDX131 (negative for pAKT at basal levels)) was “remained unchanged”, the “pAKT (S473) positive tumor area, percent change vs vehicle (↑ increase)” value ([3]; PDX191, BYL719 35 mg/kg QD 6 days/week) was 46% and the IC50 [4] was 250 nM. For the same molecule, the “Mean telomere length upon treatment (in words)” value [5] was “moderate but significant changes”, the “Telomere-induced DNA damage foci (TIFs), responders vs non-responders” value ([6]; BYL719-treated PDXs) was “higher number” and the “Cells presenting DNA damage (γH2AX positive cells)” value ([6]; responder PDXs) was “significant increase”. For the same molecule, the IC50 [7] was greater than 10000 nM, the IC50 [8] was 1200 nM and the IC50 [9] was 290 nM. For the same molecule, the IC50 [10] was […], the “Telomeric TRF1 levels vs vehicle (in words)” value ([11]; PDX98) was “remained unchanged” and the “Telomeric TRF1 spot intensity, percent change vs vehicle (↑ increase)” value ([11]; PDX191) was 80%.
